The text below walks through data of PubChem BioAssay AID504539 (Broad Institute, 2011).

Where only a bound is given, the exact number is not on record here.

The subject of this assay is Cell-based prion protein 5' UTR reporter, plate reader. Nature of the assay: prion protein 5' UTR mRNA inhibitors – cell-based, plate reader, cherry-picked samples, dose response (AID 504539).
For orientation: AC50 means the midpoint of the concentration-response curve, whichever way the signal moves. Regarding `CCCCN1C=CC(=C2C(=O)c3ccccc3C2=O)C=C1`, the AC50 was 248 nM.

With `COc1cc(SC)ccc1C(=O)Nc1ccc(Cl)cn1`, the AC50 is 567 nM. The figure for `C/C(=N\NC(=O)c1ccccc1NC(=O)c1ccc(Cl)cc1)c1ccncc1` is 418 nM.

In the case of `C(=N\Nc1ccc2ccccc2n1)/c1ccc2c(c1)OCCO2`, the AC50 is 1220 nM. For `COc1cccc(N2CCN(C(=O)c3ccc(CS(=O)c4ccccc4C)o3)CC2)c1` (stereo not drawn) the value was 1380 nM; for `Cc1ccc(CCC(=O)Nc2ncc(Cc3cc(Cl)ccc3Cl)s2)o1`, 841 nM; for `Clc1ccc2nc(-c3ccccc3)nc(C(Cl)Cl)c2c1`, 885 nM. With `Cc1ccc(OCC(=O)c2cc(C)n(-c3ccccc3)c2C)c([N+](=O)[O-])n1`, the AC50 is 3270 nM. The figure for `COc1ccc(-c2nc(-c3ccccn3)no2)cc1` is 209 nM; for `Cc1[nH]nc2ccc(-c3cncc(OC[C@@H](N)Cc4c[nH]c5ccccc45)c3)cc12` it is 335 nM; for `Cc1cc(C(=O)COC(=O)c2ccccc2O)c(C)n1CC1CCCO1` (stereo not drawn) it is below 38 nM. On to `Cc1ccc(C(=O)O/N=C(\N)c2ccccn2)cc1C`, for which the AC50 was 708 nM. For `COc1cc2c(c(OC)c1OC)-c1ccc(SC)c(=O)cc1C(NC(=O)c1ccccc1)CC2` (stereo not drawn) the value was below 38 nM; for `COc1cc(C2c3cc4c(cc3C(OC3OC5COC(c6cccs6)OC5C(O)C3O)C3COC(=O)C23)OCO4)cc(OC)c1O` (stereo not drawn), 657 nM; for `Cc1cc(C(=O)COC(=O)c2ccccc2Br)c(C)n1CC1CCCO1` (stereo not drawn), 90 nM. The figure for `CC(C)CCCCCCCCCCCCC(=O)NCC(=O)NC1C(O)C(O)C(Nc2ncnc3nc[nH]c23)OC1C(O)CO` (stereo not drawn) is 87 nM; for `COc1ccc(OC)c(N/C=C/C(=O)c2ccccc2)c1` it is 558 nM; for `Cc1cnc(NC(=O)c2ccc3c(c2)OCCO3)s1` it is 159 nM.

`COc1ccc(N/C=C/C(=O)c2cc(OC)c(OC)c(OC)c2)cc1`: the concentration at half-maximal activity (AC50) is 2440 nM.

`C[C@H]1CCC/C=C/[C@@H]2C[C@H](O)C[C@H]2[C@H](O)[C@H](S(=O)c2ccc(O)cc2)CC(=O)O1` (stereo partly drawn): the half-maximal activity concentration (AC50) was 182 nM. The figure for `O=C(NCCc1ccccc1)c1ccc2c(c1)OCCO2` is 196 nM.

`COc1ccc(/C=C2\SC(=O)N(CCCC(=O)Nc3cc(Cl)ccc3C(=O)O)C2=O)cc1`: the AC50 is 242 nM. The figure for `CC1(C)CC[C@]2(C(=O)n3ccnc3)CC[C@]3(C)[C@H](C(=O)C=C4[C@@]5(C)C=C(C#N)C(=O)C(C)(C)[C@@H]5CC[C@]43C)[C@@H]2C1` is 808 nM; for `COc1cc(SC)ccc1C(=O)Nc1ncc(C)s1` it is 361 nM; for `CC(=O)OC1CC(OC2C(O)CC(OC3C(O)CC(OC4CCC5(C)C(CCC6C5CC(O)C5(C)C(C7=CC(=O)OC7)CCC65O)C4)OC3C)OC2C)OC(C)C1OC1OC(CO)C(O)C(O)C1O` (stereo not drawn) it is 92 nM. Turning to `O=C(OCC(F)(F)F)c1cccc(COc2ccc3ccccc3c2)c1`, the AC50 is 376 nM. For `Nc1ccc2oc(-c3cccc4ccccc34)nc2c1` the value was 826 nM; for `Cc1c(C)c2ccc(OCC(=O)Nc3ccccn3)c(C)c2oc1=O`, 64 nM. On to `CC(=O)OC1C(O)C(C)OC(OC2C(OC(=O)C3CCC4C(C3)OC3(CC(OC(=O)/C=C/c5ccccc5)C(C)CO3)C43CO3)OC(C)C(O)C2OC(C)=O)C1O` (stereo not drawn), for which the AC50 is 104 nM. For `CC(=O)CSc1ccc(-c2nc3cc(C)c(C)cc3[nH]2)cn1` the value was 434 nM; for `CN(C)c1ccc(Nc2nc(N)c3ccccc3n2)cc1`, 562 nM; for `Cc1ccccc1OCC(=O)Nc1cccc(C(=O)O)c1`, 422 nM. For `CN(C)c1ccc(/C=C2\SC(=O)N(CCc3nnc(N)s3)C2=O)cc1` the value was 481 nM; for `CC1=CC2OC3CC4OC(=O)C=CC=CC(C(C)O)OCC(O)C(C)CC(=O)OCC2(CC1O)C4(C)C31CO1` (stereo not drawn), below 38 nM; for `COc1cc2c(c(OC)c1OC)-c1ccc(O)cc1C(NC(C)=O)CC2` (stereo not drawn), 128 nM.

For the compound `CCCC1=Nc2cc(C(=O)NCCCOCC)ccc2Sc2ccccc21`, the AC50 was 434 nM. As for `OCC1OC(n2ccc3c(NO)ncnc32)C(O)C1O` (stereo not drawn), the AC50 is 189 nM. Consider `CN1CCN(c2ccc(-c3ccc4ccccc4n3)cc2)CC1`, for which the AC50 is 113 nM. For `C[C@@H]1O[C@@H](O[C@H]2C[C@@H](O)[C@]3(CO)[C@H]4[C@H](O)C[C@]5(C)[C@@H](C6COC(=O)C6)CC[C@]5(O)[C@@H]4CC[C@]3(O)C2)[C@H](O)[C@H](O)[C@H]1O` (stereo partly drawn) the value was 915 nM. As to `CN(NC(=O)c1ccccc1F)c1nc(C(F)(F)F)nc2ccccc12`, the AC50 was 1320 nM. The figure for `OCCCNc1cc(-c2ccnc(Nc3cccc(Cl)c3)n2)ccn1` is 181 nM; for `NC(=S)NN=Cc1nccc2ccccc12` it is 2800 nM; for `O=C(CN1C(=O)c2ccccc2S1(=O)=O)N1CCc2ccccc21` it is 582 nM.

Regarding `Cc1ccc(NC(=O)/C=C/c2ccco2)nc1`, the AC50 is 287 nM. As to `O=C(O)c1cccc(-c2noc(-c3cccc(Cl)c3)n2)c1`, the AC50 was 153 nM. With `Nc1ncnc2c1ccn2[C@@H]1O[C@H](CO)[C@@H](O)[C@H]1O`, the AC50 is 164 nM. For `O=C(CCCc1ccccc1)c1ccc2c(c1)OCCO2` the value was 344 nM; for `c1ccc(-c2ccc(-c3nc(-c4ccccn4)no3)cc2)cc1`, 224 nM; for `Cc1cc(C(=O)CN2C(=O)c3ccccc3S2(=O)=O)c(C)n1C(C)C`, 2160 nM. As to `COc1cc(C(=O)N2CCN(c3ccccc3)CC2)c2ccccc2n1`, the AC50 is 574 nM.

For `CC(=O)N(/N=C1\Sc2ccccc2C1=O)c1ccc(C)cc1C`, the AC50 was 4720 nM. As for `Nc1ccc(-c2cc3ccccc3c(=O)o2)cc1`, the half-maximal activity concentration (AC50) is 467 nM. On to `C[C@H]1[C@@H](OS(=O)(=O)O)C[C@@H]2C[C@H]([C@@H](O)c3cc(=O)[nH]c(=O)[nH]3)NC3=NC[C@H]1N32`, for which the AC50 is 2560 nM. The figure for `CN(CCO)c1ccc(/C=N/Nc2nncc3ccccc23)cc1` is 412 nM. The figure for `Cc1ccc(-c2nnc(SCC(=O)Nc3ccccc3F)o2)cc1` is 284 nM; for `COC1C(C)OC(OC2CC(C)(O)Cc3cc4c(c(O)c32)C(=O)c2c(O)cc3c(c2C4=O)OC2OC3(C)C(O)C(N(C)C)C2O)C(OC)C1(C)OC` (stereo not drawn) it is 118 nM. `Cc1cccc2cc(C#N)c(SCC(=O)N3CC(=O)Nc4ccccc43)nc12`: the half-maximal activity concentration (AC50) was 960 nM.

With `Cc1ccc(C(=O)O/N=C(\N)c2ccccc2)c(Cl)c1`, the AC50 is 948 nM. Take `O=C(NCCc1ccccc1F)c1ccc2c(c1)OCCO2`: the AC50 was 140 nM.

Regarding `COc1ccc(C(=O)Nc2ccccc2C(=O)N/N=C/c2ccc(O)c(OC)c2)cc1`, the AC50 is 1400 nM. The figure for `CCOc1ncccc1C(=O)N1CCN(c2cccc(C)c2C)CC1` is 517 nM; for `Cc1cc2sc3ccc(C#CC4(O)CCCCC4)cc3c(=O)c2cc1C` it is below 38 nM. Take `Cc1ccc(Sc2c(CO)c(-c3ccccc3)nn2C)cc1`: the AC50 was 528 nM. Consider `O=C(O)CSCC(=O)Nc1ccc(C2CCCCC2)cc1`, for which the AC50 is 1560 nM. The figure for `COc1ccccc1N1CCN(C(=O)c2cc(=O)c3cc(C)cc(C)c3o2)CC1` is 248 nM; for `CC(C)(C)C(=O)Nc1cc2nn(-c3ccccc3)nc2cc1Cl` it is below 38 nM. The figure for `O=c1c(Cl)c(N2CCCCC2)cnn1-c1nc2ccccc2[nH]1` is 501 nM; for `N/C(=N\OC(=O)c1ccc(Cl)cc1Cl)c1ccccn1` it is 539 nM; for `O=C(CN1C(=O)c2ccccc2S1(=O)=O)c1ccc(OC(F)F)cc1` it is 657 nM. The figure for `Cc1cc(C2=NNC(=NC3CC3)SC2)c(C)n1-c1ccccc1F` is below 38 nM; for `CCOC(=O)C(C)Oc1cccc2c(=O)n(CC(=O)NCc3ccc(F)cc3)ccc12` (stereo not drawn) it is 486 nM; for `Cc1cc(C)c2c(N)c(C(=O)Nc3ncc(C)s3)sc2n1` it is 388 nM. On to `CCN(CCO)c1ccc(N=Nc2cc(C)[nH]n2)cc1`, for which the AC50 was 471 nM. The figure for `Cc1ccc(C(=O)CN2C(=O)c3ccccc3S2(=O)=O)cc1` is 823 nM; for `CN(C)CCNc1ccc2ncn3c4ccc(O)cc4c(=O)c1c23` it is 2470 nM; for `CN(C)CCN1C(=O)c2cccc3cc([N+](=O)[O-])cc(c23)C1=O` it is 433 nM. The figure for `O=c1c2ccccc2oc2cc(C#CC3(O)CCCCC3)ccc12` is 1840 nM; for `CC(=O)OC1CC2(O)C3CCC4CC(O)CCC4(C)C3CCC2(C)C1C1=CC(=O)OC1` (stereo not drawn) it is 92 nM. For `COc1ccc2[nH]c(-c3cccc(F)c3)cc(=O)c2c1` the value was 1550 nM; for `Cc1cc(C(=O)COC(=O)C2=COCCO2)c(C)n1-c1ccccc1`, 1170 nM; for `C=C1C(=O)O[C@@H]2C[C@@H](C)[C@@H]3C=CC(=O)[C@@]3(C)[C@@H](OC(=O)CC(=O)O[C@H]3[C@@H]4C(=C)C(=O)O[C@@H]4C[C@@H](C)[C@@H]4C=CC(=O)[C@]43C)[C@H]12`, 633 nM. On to `CCOc1ccc2c(c1)C(C)=CC(C)(C)N2S(=O)(=O)c1ccc(C)cc1`, for which the AC50 was 1590 nM. For the compound `Cc1ccc2nc(-c3ccccc3)cn2c1`, the AC50 was 210 nM.

`COCCCN=C1NN=C(c2cc(C)n(Cc3ccco3)c2C)CS1`: the AC50 was 1130 nM. The figure for `O=C(NCCc1ccccc1)c1ccc2c(c1)OCCCO2` is 187 nM; for `C[C@@H]1O[C@@H](O[C@@H]2C=C3CC[C@@H]4C(CC[C@]5(C)[C@@H](c6ccc(=O)oc6)CC[C@]45O)[C@@]3(C)CC2)[C@H](O)[C@H](O)[C@H]1O` (stereo partly drawn) it is below 38 nM. For `Cc1nn(-c2ccccc2)c(C)c1/C=N/NC(=O)c1cc(-c2ccccc2)n[nH]1` the value was 783 nM; for `c1cc2c(cc1C1=NNC(=NC3CC3)SC1)OCCO2`, 189 nM; for `COC(=O)Cc1[nH]n(-c2nc3ccccc3s2)c(=O)c1C(C)=Nc1ccc(OC)cc1`, 108 nM. The figure for `COc1cc(C2c3cc4c(cc3CC3COC(=O)N32)OCO4)cc(OC)c1OC` (stereo not drawn) is 861 nM; for `Clc1ccccc1/C=C/c1nc(-c2ccccn2)no1` it is 540 nM.

On to `Cc1c(/C=N\NC(=O)C2COc3ccccc3O2)c2ccccc2n1C` (stereo not drawn), for which the AC50 was 3040 nM. For `CNc1c2cccc(C)c2nc2c(C(=O)NCCN(C)C)cccc12` the value was 307 nM.
